Patent US20110152166A1, “METHOD OF MODULATION OF PROTEIN PHOSPHORYLATION-DEPENDENT CONFORMATIONAL TRANSITIONS WITH LOW MOLECULAR WEIGHT COMPOUNDS” (priority 2006, published 2011)

Tests used:
[1] = molecular target: T1, PDK1[Val127Leu] activation of SGK1 [Ser422Asp] (Homo sapiens, UniProt O15530, V127L); experiment: SGK activation by PDK1[Val127Leu] in vitro; type: biochemical; conditions: compound 60 μM
T1 construct: GST (N); made in house; host or cells: HEK293
Description: FIG. 4—Small compounds designed to bind the HM/PIF-pocket of PDK1 can block the PDK1-dependent phosphorylation and activation of substrates that require docking to the HM/PIF-pocket of PDK1. (A) Effect of compound 1 (100 and 200 μM) on PDK1 phosphorylation of its substrate S6K1. The phosphorylation reaction was performed in vitro with [γ^32P]ATP and then separated on SDS-PAGE followed by exposure to phosphorimager. The radioactive band corresponding to phosphorylated GST-56K1-T2[Thr412Glu] (S6K[412E]) is indicated. (B) PDK1 or PDK1[Val127Leu] (PDK1[V127L]) were pre-incubated with GST-[…]N-SGK1 [Ser422Asp] […] (C) The activity of S6K was measured in vitro after glutathione sepharose purification; aliquots of purified proteins were separated on SDS-PAGE and the level of activation loop phosphorylation was visualized by immunoblotting using phospho-specific antibodies that recognize the phosphorylated activation loop, followed by stripping of the membranes and re-probing with anti-GST to verify the presence of equal amounts of protein. (D) Cells overexpressing GST-56K1-T2[Thr412Glu] were treated as in (C) but S6K activity was measured in vitro after immunoprecipitation of the GST-fusion protein with anti-GST antibodies; the level of S6K expression was analysed by western-blotting of crude extracts. […]

[2] = molecular target: T2, Thr221-phosphorylated S6K11-364 (Rattus norvegicus, UniProt P67999); experiment: S6K1 in vitro reconstitution kinase assay with tail peptides; type: biochemical
T2 construct: Purified HA-S6K1-364 was incubated with synthetic S6K1 (rat) tail peptides; made in house; host or cells: COS7, co-transfected with myc-PDK1; anti-HA immunoprecipitate
T2 sequence (P67999 24-387): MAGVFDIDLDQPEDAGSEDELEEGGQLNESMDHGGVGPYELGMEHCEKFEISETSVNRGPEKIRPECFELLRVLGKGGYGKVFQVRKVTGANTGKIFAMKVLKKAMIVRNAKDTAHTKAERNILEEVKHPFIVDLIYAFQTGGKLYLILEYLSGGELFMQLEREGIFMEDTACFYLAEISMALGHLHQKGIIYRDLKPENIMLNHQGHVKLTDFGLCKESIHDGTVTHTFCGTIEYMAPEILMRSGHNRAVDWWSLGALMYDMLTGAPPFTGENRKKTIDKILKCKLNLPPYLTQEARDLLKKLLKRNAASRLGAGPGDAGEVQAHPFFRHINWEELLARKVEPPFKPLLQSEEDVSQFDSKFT
From the text: We established an in vitro reconstitution assay that could test a direct activation of the AGC kinase domain by the tail phosphate and characterize its cooperation with the HM and activation loop phosphates. The deletion mutant S6K11-364, which contains the kinase domain, but lacks the region of the tail containing the tail site and the HM as well as the C-terminal autoinhibitory domain, was expressed and purified from COS7 cells, either non-phosphorylated or phosphorylated at T221 in the activation loop, achieved by co-expression with PDK1. Purified S6K11-364 was then incubated with synthetic peptides of the S6K1 tail (residues 366-395: QTPVDS^371PDDSTLSESANQVFLGFT^389YVAPSV), which were either non-phosphorylated (S371/T389), phosphorylated at the tail site (pS371/T389), phosphorylated in the HM (S371/pT389) or phosphorylated at both sites (pS371/pT389). Subsequently, the kinase activity of S6K11-364 was determined.
Kinase assays for PKB, RSK, S6K, MSK were done as described previously (Frodin et al., 2002). […] After washing with 150 mM orthophosphoric acid, [^32P]phosphate incorporated into peptide substrate was quantified in an FLA-3000 apparatus (Fujifilm). […]

T1 sequence (O15530 whole entry V127L): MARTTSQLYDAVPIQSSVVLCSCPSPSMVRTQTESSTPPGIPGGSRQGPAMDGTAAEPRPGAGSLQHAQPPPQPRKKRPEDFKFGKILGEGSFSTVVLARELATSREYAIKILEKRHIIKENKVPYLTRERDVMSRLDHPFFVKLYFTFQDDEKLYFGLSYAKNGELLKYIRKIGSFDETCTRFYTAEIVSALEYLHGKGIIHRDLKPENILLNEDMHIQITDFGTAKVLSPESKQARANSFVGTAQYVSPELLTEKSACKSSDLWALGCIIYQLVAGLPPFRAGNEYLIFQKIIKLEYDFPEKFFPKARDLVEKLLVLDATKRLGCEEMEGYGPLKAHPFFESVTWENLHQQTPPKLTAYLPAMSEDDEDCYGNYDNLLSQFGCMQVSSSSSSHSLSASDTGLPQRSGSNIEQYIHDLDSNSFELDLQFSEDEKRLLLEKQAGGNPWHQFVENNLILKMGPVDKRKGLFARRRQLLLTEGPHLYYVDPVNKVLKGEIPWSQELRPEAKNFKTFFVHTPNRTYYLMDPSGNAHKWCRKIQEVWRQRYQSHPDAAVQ

| SGK activation by PDK1[Val127Leu] (in words) [1] | stimulation of kinase activity (in words) [2] | Compound |
| --- | --- | --- |
| not inhibited |  | O=C(O)CSC(CC(=O)c1ccc(Cl)cc1)c1ccccc1 (centres unmarked) [Compound 1] |
|  | did not stimulate | S371/T389: synthetic S6K1 tail peptide (residues 366-395), non-phosphorylated |
